Test results: PMC5944028, “Nonclinical and clinical pharmacological characterization of the potent and selective cathepsin K inhibitor MIV-711” (Journal of Translational Medicine, 2018)

Assays:
[1] = biological target: T1, human cathepsin L (Homo sapiens, UniProt P07711); experiment: Enzyme assay, human cathepsin L; type: biochemical; conditions: geometric mean
T1 construct: purchased Calbiochem
Text: (§1) Recombinant cathepsin K enzymes from all species were expressed in E. coli, purified and activated. Human cathepsin F and cathepsin S were expressed in Baculovirus, purified and activated. Purified human cathepsins B and H (Athens Research Technology), cathepsin L (Calbiochem), and cathepsin V (R & D Systems) were purchased.
(§2) H-D-Ala_Leu-Lys-AMC was used as the substrate in assays of cathepsin K from non-rodent species (human, dog, rabbit and guinea pig), and Z-Leu-Arg-AMC was used as the substrate in assays of cathepsin K from rodent species (mouse and rat). […]
(§3) Assays were carried out in white polystyrene 96-well plates in a final volume of 100 µL. […] Plates were read in a Fluoroskan Ascent (Thermo Labsystems, Helsinki, Finland) in kinetic mode, with excitation and emission filters of 390 and 460 nm, respectively. Rates were determined by linear regression of the fluorescence/time data in Excel. Rates were fitted by non-linear regression to either the competitive inhibition equation, with the substrate concentration fixed at the value in the assay and the KM fixed to the value previously determined, or the IC50 equation using GraphPad Prism (GraphPad, version 6, San Diego, USA) to obtain Ki or IC50 values, respectively.

[2] = Human plasma pharmacokinetics, single ascending dose study; type: in vivo, human healthy subjects; conditions: for AUC0–t / AUCinf / Cmax / Cmax/dose / t½: geometric mean (CV%); for tmax: median (min–max)
Text: Twenty-seven healthy male and female subjects (18 male and 9 female) of any ethnic origin (24 White, 1 Asian, 1 Black, 1 Black/Caribbean White), aged between 19 and 64 years, and with a body mass index (BMI) between 18.0 and 32.0 kg/m^2, were selected for this study. Inclusion criteria for enrollment followed the standard practice for first-in-man studies.
This was a randomized, double-blind, placebo-controlled, sequential, single-ascending dose study conducted at a single site with the objective of evaluating the safety, tolerability, pharmacokinetics (PK) and pharmacodynamics of MIV-711. Subjects were randomized into 3 groups using a computer-generated pseudo-random permutation procedure. Each group consisted of 9 subjects with at least 3 subjects of each gender per group and subjects participated in 1–2 treatment periods. There was a minimum of 10 days between dose escalations and a minimum of 20 days between dosing occasions for individual subjects. For each subsequent dosing occasion, the decision to escalate the dose to the next level was taken after a thorough review of the safety, tolerability and PK data. In each treatment period, 7 subjects received MIV-711 and 2 received placebo (comprising of 1 subject of each gender). Dosing occurred on the morning of Day 1 following an overnight fast and subjects were kept in the fasted state until approximately 4.5 h after dosing. MIV-711 was given as a combination of 10 or 40 mg hard gelatin capsules, while placebo was given in similar capsules of identical appearance.
Blood samples were collected at pre-dose, 0.5, 1, 1.5, 2, 3, 4, 6, 8, 12, 16, 24, 36 and 48 h post-dose and processed into plasma for the measurement of concentrations of MIV-711. The PK analysis was conducted using WinNonlin Enterprise Version 5.2 (Pharsight Corporation, Mountain View, CA, USA).
The quantification of MIV-711 in monkey plasma was performed by taking 10–50 µL of plasma and mixing with 3 volumes of acetonitrile (10 s, Vibrofix). The sample was centrifuged (10 min, 20,000×g, 7 °C) and 5 µL of the supernatant was injected onto the liquid chromatography with tandem mass spectrometric detection (LC–MS/MS) system. The lowest concentration of the standard curves and the lower limit of quantification (LLOQ) was 1 nmol/L of MIV-711. The human plasma samples were prepared by protein precipitation for sample extraction followed by LC–MS/MS. The lowest concentration of the standard curves and the LLOQ was 4 nmol/L of MIV-711 using 25 µL of plasma.

[3] = biological target: T2, human cathepsin F (Homo sapiens, UniProt Q9UBX1); experiment: Enzyme assay, human cathepsin F; type: biochemical
T2 construct: made in house
T2 sequence (Q9UBX1 271-484): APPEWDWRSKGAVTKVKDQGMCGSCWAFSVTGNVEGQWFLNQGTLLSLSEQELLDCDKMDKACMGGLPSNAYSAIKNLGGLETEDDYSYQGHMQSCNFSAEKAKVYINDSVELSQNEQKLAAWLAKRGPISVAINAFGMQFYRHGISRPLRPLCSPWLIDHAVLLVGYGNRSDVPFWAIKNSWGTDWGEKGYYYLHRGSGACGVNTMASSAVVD
Text: as §1, §2, §3

[4] = biological target: T3, human cathepsin S (Homo sapiens, UniProt P25774); experiment: Enzyme assay, human cathepsin S; type: biochemical; conditions: geometric mean
T3 construct: made in house
T3 sequence (P25774 115-331): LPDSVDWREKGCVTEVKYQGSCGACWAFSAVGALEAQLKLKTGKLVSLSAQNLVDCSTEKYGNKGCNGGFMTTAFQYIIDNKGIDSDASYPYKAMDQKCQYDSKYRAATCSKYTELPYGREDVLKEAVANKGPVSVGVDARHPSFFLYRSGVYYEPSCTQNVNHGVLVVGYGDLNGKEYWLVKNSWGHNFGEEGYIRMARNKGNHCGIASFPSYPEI
Text: as §1, §2, §3

T1 sequence (P07711 114-333): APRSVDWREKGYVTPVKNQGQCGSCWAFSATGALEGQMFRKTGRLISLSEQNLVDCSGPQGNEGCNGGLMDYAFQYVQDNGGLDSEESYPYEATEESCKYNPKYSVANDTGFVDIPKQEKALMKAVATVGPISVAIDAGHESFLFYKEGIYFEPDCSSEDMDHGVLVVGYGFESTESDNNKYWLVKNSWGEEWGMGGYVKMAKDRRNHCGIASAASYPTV

In the case of `C#C[C@@H]1CN(C(=O)[C@H](CC(C)C)NC(=O)c2ccc(-c3nc(N4CCN(C)CC4)sc3F)cc2)[C@@H]2C(=O)CO[C@H]12` [MIV-711], the Ki [1] is reported as 1.7 µM, the “AUC0–t” value ([2]; 20 mg single oral dose) is reported as 0.128 (36) µmol/L × h and the AUCinf ([2]; 20 mg single oral dose) is reported as 0.158 (32) µmol/L × h. The Cmax ([2]; 20 mg single oral dose) was 0.033 µM, the Cmax/dose ([2]; 20 mg single oral dose) was 0.12 (26) and the t½ ([2]; 20 mg single oral dose) was 3.4 (13) h. For the same compound, the tmax ([2]; 20 mg single oral dose) was 1.0 (0.50–2.0) h, the “AUC0–24h” value ([2]; 100 mg) was 1100 nM·h and the “AUC0–t” value ([2]; 100 mg single oral dose) was 1.13 (38) µmol/L × h. For the same compound, the AUCinf ([2]; 100 mg single oral dose) was 1.17 (37) µmol/L × h, the Cmax ([2]; 100 mg single oral dose) was 0.293 µM and the Cmax/dose ([2]; 100 mg single oral dose) was 0.21 (23). The t½ ([2]; 100 mg single oral dose) was 3.7 (15) h, the tmax ([2]; 100 mg single oral dose) was 1.0 (1.0–2.2) h and the “Plasma levels at 24 h post-dose” value ([2]; 100 mg, mostly below LLOQ) was under 0.004 µM. The “AUC0–t” value ([2]; 200 mg single oral dose) was 2.45 (36) µmol/L × h, the AUCinf ([2]; 200 mg single oral dose) was 2.51 (35) µmol/L × h and the Cmax ([2]; 200 mg single oral dose) was 0.756 µM. The Cmax/dose ([2]; 200 mg single oral dose) was 0.27 (36), the t½ ([2]; 200 mg single oral dose) was 5.0 (16) h and the tmax ([2]; 200 mg single oral dose) was 1.0 (0.50–1.0) h. For the same compound, the “AUC0–t” value ([2]; 400 mg single oral dose) was 4.62 (33) µmol/L × h, the AUCinf ([2]; 400 mg single oral dose) was 4.75 (32) µmol/L × h and the Cmax ([2]; 400 mg single oral dose) was 1.18 µM. For the same compound, the Cmax/dose ([2]; 400 mg single oral dose) was 0.23 (37), the t½ ([2]; 400 mg single oral dose) was 6.5 (44) h and the tmax ([2]; 400 mg single oral dose) was 1.0 (1.0–1.5) h. For the same compound, the “AUC0–t” value ([2]; 600 mg single oral dose) was 6.75 (30) µmol/L × h, the AUCinf ([2]; 600 mg single oral dose) was 6.89 (30) µmol/L × h and the Cmax ([2]; 600 mg single oral dose) was 1.39 µM. For the same compound, the Cmax/dose ([2]; 600 mg single oral dose) was 0.17 (38), the t½ ([2]; 600 mg single oral dose) was 8.3 (34) h and the tmax ([2]; 600 mg single oral dose) was 1.0 (1.0–3.0) h. The Excreted renally unchanged ([2]; data not shown) was “less than 1%”, the “mean terminal t1/2” value ([2]; over the 20–600 mg dose range) was 3.4 to 8.3 h and the median tmax ([2]; single oral doses) was 1 h. The Ki [3] was 2.8 µM and the Ki [4] was 15.7 µM.
